Among the data in patent US5449677A, “Cyclic benzylamino, benzylamido and benzylimido antipsychotic agents” (McNeilab, Inc., priority 1993, dated 1995) are change in vivo values, retold here.

Structures can show the parent of a compound that is named as a salt.

The assay can be described thus: Block of Conditioned Avoidance Responding (Rat) test (CAR). In kind it is in vivo, male Fischer 344 rats. The settings on record: po, read-out: % inhibition CAR. Here is the method: The sessions consist of 60 trials, one every minute.
% change CAR=((Day 2% CAR/Day 1% CAR)×100)-100
Failure to escape was calculated for each animal as follows:
% Failures=#of Failures to Escape/#of trials
Turning to `CC(C)Oc1ccccc1N1CCN(Cc2cccc(CN3CCCCC3=O)c2)CC1` [CP #1, 1-[[3-[[1-[2-(1-Methylethoxy)phenyl]-4-piperazinyl]methyl]phenyl]methyl]piperidin-2-one Hydrochloride (3:2)], the change in vivo at 5 mg/kg was -89%.

On to `CC(C)Oc1ccccc1N1CCN(Cc2ccc(CN3CCCCC3=O)cc2)CC1` [CP #2, 1-[[4-[[1-[2-(1-Methylethoxy)phenyl]-4-piperazinyl]methyl]phenyl]methyl]-piperidin-2-one Hydrochloride (5:1)], for which the change in vivo at 5 mg/kg was -29%.

For `CC(C)Oc1ccccc1N1CCN(Cc2ccccc2CN2CCCCC2=O)CC1` [CP #3, 1-[[2-[[1-[2-(1-Methylethoxy)phenyl]-4-piperazinyl]methyl]phenyl]methyl]-piperidin-2-one Hydrochloride (3:2)], the change in vivo at 5 mg/kg was -6%.
